Experimental data taken from PMC6270616, “Antidiabetic and Antioxidant Properties of Alkaloids from Catharanthus roseus (L.) G. Don” (Molecules, 2013).

Biological target: T1, protein tyrosine phosphatase-1B (PTP-1B) (Homo sapiens, UniProt P18031)
T1 construct: gene PTPN1; recombinant PTP-1B
T1 sequence (P18031 1-435): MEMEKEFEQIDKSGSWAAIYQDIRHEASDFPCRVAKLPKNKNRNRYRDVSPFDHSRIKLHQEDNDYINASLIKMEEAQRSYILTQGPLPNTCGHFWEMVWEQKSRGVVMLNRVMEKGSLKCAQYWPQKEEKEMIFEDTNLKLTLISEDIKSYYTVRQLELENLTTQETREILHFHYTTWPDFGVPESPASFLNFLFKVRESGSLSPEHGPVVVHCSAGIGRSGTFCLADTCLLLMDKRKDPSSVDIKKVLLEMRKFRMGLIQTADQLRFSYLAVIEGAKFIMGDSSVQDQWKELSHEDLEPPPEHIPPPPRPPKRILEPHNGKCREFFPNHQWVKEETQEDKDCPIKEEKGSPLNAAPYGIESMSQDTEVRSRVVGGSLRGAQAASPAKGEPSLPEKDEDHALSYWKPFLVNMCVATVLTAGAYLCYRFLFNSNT
Assay: pNPP phosphatase assay with recombinant enzyme, absorbance at […] nm
Assay type: biochemical

## COC(=O)[C@@H]1C[C@@]23C=CCN4CC[C@@]5(c6ccccc6N[C@]15[C@@H]2C)[C@@H]43 [IV, vindolinine]
  pNPP phosphatase assay with recombinant enzyme, absorbance at 405 nm: compounds II–IV demonstrated good protein tyrosine phosphatase-1B (PTP-1B) inhibition activity
